In brackets after ≈: the same amount, converted by molar mass.
Test system: T1, rat intestinal α-glucosidase
T1 construct: gene Mgam; native; supernatant of PBS extract of commercial rat intestinal powder (crude mixture of brush-border glucosidases)
Assay: turbidity ([…] nm) of corn starch hydrolysis, AUC, microplate
Assay type: biochemical
Settings: corn starch substrate; PBS, 37 °C preincubation 15 min

- IC50: 2.27 ± 1.35 mg/L (≈ 3.52 µM)
SMILES: C[C@H]1O[C@H](O[C@H]2[C@H](O)[C@@H](O)[C@@H](O[C@H]3[C@H](O)[C@@H](O)C(O)O[C@@H]3CO)O[C@@H]2CO)[C@H](O)[C@@H](O)[C@@H]1N[C@H]1C=C(CO)[C@@H](O)[C@H](O)[C@H]1O (stereo partly shown) [acarbose]

— PMC8387799, “Inhibition Effect of Extract of Psychotria viridiflora Stem on α-Amylase and α-Glucosidase and Its Application in Lowering the Digestibility of Noodles” (Frontiers in Nutrition, 2021)
